From US20030065030A1, “Autonomic controlling agents and health drinks and foods” (priority 2001, published 2003)
Read-outs that look alike come from different tables or passages of the source.

Key:
[1] = system: DOCA-salt hypertensive rats; experiment: anti-hypertensive effect in DOCA-salt hypertensive rats (systolic blood pressure); format: in vivo, rat
Experimental: Sprague-Dawley male rats (6-week old) were used. The animals were anesthetized by the intraperitoneal administration of pentobarbital at 40 mg/kg body weight, and the right flank was dissected to remove the right kidney. After the surgical operation and a one week recovery period, the animals were divided into the pseudosurgery (sham) group and the deoxycorticosterone acetate (DOCA) salt group. Each group was further divided into the normal diet group, the 0.001% carnosine-containing diet group, and the 0.0001% carnosine-containing group.
The rats of the DOCA-salt group received the subcutaneous injection of DOCA suspended in corn oil at 15 mg/kg body weight twice per week, and tap water supplemented with 1% sodium chloride was given as the drinking water. The sham group received neither DOCA nor sodium chloride. The systolic blood pressure was monitored once per week for five weeks using the tail cuff and the pneumatic pulse transducer (BP-98A, Softron). The experiment employed 9 rats in the DOCA group and 6 rats in the sham group. Data were tested with ANOVA (p<0.05) and were expressed as mean +/− standard error.

[2] = molecular target: T1, carnosine-degrading enzyme (Homo sapiens, UniProt Q96KN2); conditions: cited from earlier work
T1 construct: host or cells: human blood
T1 sequence (Q96KN2 27-507 limits assumed): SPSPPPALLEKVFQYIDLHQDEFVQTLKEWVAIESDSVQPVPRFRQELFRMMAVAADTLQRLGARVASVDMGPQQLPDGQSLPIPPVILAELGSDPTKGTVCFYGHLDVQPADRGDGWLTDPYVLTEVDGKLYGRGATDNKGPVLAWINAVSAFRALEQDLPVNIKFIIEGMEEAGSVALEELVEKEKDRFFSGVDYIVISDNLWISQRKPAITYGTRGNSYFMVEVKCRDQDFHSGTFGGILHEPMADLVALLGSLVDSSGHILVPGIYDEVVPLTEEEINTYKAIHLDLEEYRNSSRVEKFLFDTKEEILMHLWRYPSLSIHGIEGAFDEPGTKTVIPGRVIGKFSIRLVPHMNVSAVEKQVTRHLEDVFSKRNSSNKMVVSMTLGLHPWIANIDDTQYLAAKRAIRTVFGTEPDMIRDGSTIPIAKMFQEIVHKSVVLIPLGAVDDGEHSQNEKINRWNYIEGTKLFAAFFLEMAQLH

[3] = cited from earlier work
2DG hyperglycemic rats = experiment: anti-hyperglycemia in the 2DG hyperglycemic rats; format: in vivo, rat
Excerpt: Since blood glucose levels are expected to be reduced when the activity of the autonomic nervous system is controlled by carnosine at a low dose, the effect of carnosine on anti-hyperglycemia in the 2DG hyperglycemic rats was investigated according to the method of Chun et al. (Brain Research 809:165-174, 1998). Wistar male rats (initial weight, about 250 g) were used that had been acclimated for at least 10 days to an environment in a room illuminated with an incandescent light of 80 lux on the average for 12 hours at room temperature (24 +/− 1° C.) with free access to the feed.
Three days before the experiment, rats under anesthesia with pentobarbital (35 mg/kg body weight, intraperitoneal administration) received the insertion of a cardiac catheter comprising a silastic tubing (Dow Corning, Midland, Mich.) and a polyethylene tubing (Clay Adams, Parsippany, N.J.) into the right atrium and a polyethylene tubing into the right lateral cerebral ventricle (LCV). On the day of the experiment, carnosine dissolved in physiological saline was administered to the rats intracranially (0.01 ml) or intraperitoneally (0.1 ml) with the simultaneous administration into the rat LCV of 80 μmol 2-deoxy-D-glucose (2DG, 0.01 ml). The control rats received physiological saline instead of carnosine and an artificial cerebrospinal fluid in stead of 2DG, each at the same amount.
Sixty minutes after the administration of 2DG into the LCV, 300 μl of blood was taken via the cardiac catheter and the plasma level of glucose was determined. The glucose concentrations in the plasma were measured using the Fuji-Dri-chem system (Fuji Film Tokyo) according to the glucose oxidase method. Changes in plasma concentrations of glucose were expressed as a ratio (%) relative to the control value at 90 minutes after 2DG administration set at 100. Four or five rats were used in the experiments. Data were tested with ANOVA (p<0.05) and were expressed as mean +/− standard error.

[4] = system: sympathetic nerve adrenal branches; experiment: efferent neural activity of the sympathetic nerve adrenal branches after intravenous carnosine; format: in vivo, rat; conditions: 100 ng intravenous
Experimental: According to the method of Niijima (Neurobiology 3:299-307, 1995), the effect of carnosine on the autonomic nerve activity was investigated. Wistar male rats, weighing about 300 g, that had been kept in an environment of room temperature (24° C.) and free access to the feed were fasted (with free access to water) 12 hours before the start of the experiment. Rats were subjected to abdominal section under urethane anesthesia (1 g/kg body weight, intraperitoneal administration), neurofilaments were isolated from central cut ends of a sympathetic nerve branch or a vagal nerve branch, and the efferent neural activity was recorded via an AC amplifier. The neural activity was observed using an oscilloscope and was recorded into magnetic tape. At the same time, the time course of the neural activity was recorded with a pen-type recorder via a rate meter with a reset time set at 5 seconds.
Carnosine (100 ng or 1,000 ng dissolved in 0.1 ml physiological saline) was intravenously administered. As the control, physiological saline (0.1 ml) was alone administered intravenously.
The effect of carnosine administration was calculated as the neural activity count (%) after carnosine administration relative to neural activity count (mean value of 10 activity counts during 5 minutes) before administration set at 100. Five rats were used for each experiment. Data were tested with ANOVA (p<0.05) and were expressed as mean +/− standard error.

NCCC(=O)N[C@@H](Cc1cnc[nH]1)C(=O)O [carnosine, β-alanyl-L-histidine]
suppression rate of increase in systolic blood pressure ([1]; 0.0001% carnosine-containing diet, week five): 17.8% | suppression rate of increase in systolic blood pressure ([1]; 0.0001% carnosine-containing diet, week four): 22.1% | suppression rate of increase in systolic blood pressure ([1]; 0.0001% carnosine-containing diet, week one): 9.6% | suppression rate of increase in systolic blood pressure ([1]; 0.0001% carnosine-containing diet, week three): 15.0% | suppression rate of increase in systolic blood pressure ([1]; 0.0001% carnosine-containing diet, week two): 10.2% | suppression rate of increase in systolic blood pressure ([1]; 0.001% carnosine-containing diet, week five): 25.5% | suppression rate of increase in systolic blood pressure ([1]; 0.001% carnosine-containing diet, week four): 21.5% | suppression rate of increase in systolic blood pressure ([1]; 0.001% carnosine-containing diet, week one): 6.2% | suppression rate of increase in systolic blood pressure ([1]; 0.001% carnosine-containing diet, week three): 19.6% | suppression rate of increase in systolic blood pressure ([1]; 0.001% carnosine-containing diet, week two): 12.4% | activity of a carnosine-degrading enzyme in the blood [2]: 2 to 7 µmol/h/mL | absorptivity relative to carnosine alone ([3]; administered to the jejunum of mice in combination with L-alanine): more than two-fold higher | absorptivity relative to carnosine alone ([3]; administered to the jejunum of mice with β-alanine): more than tripled | oral absorptivity ([3]; mice): 30-70% | effect on hyperglycemia (2DG hyperglycemic rats; 10 ng intracranially administered): suppressed hyperglycemia | suppression rate of hyperglycemia (plasma glucose) (2DG hyperglycemic rats; 10 ng intraperitoneal): 16.0% | suppression rate of hyperglycemia (plasma glucose) (2DG hyperglycemic rats; 100 ng intraperitoneal): 31.5% | suppression rate of hyperglycemia (plasma glucose) (2DG hyperglycemic rats; 1,000 ng intraperitoneal): 26.8% | suppression rate of hyperglycemia (plasma glucose) (2DG hyperglycemic rats; 10,000 ng intraperitoneal): 27.6% | suppression rate of hyperglycemia (plasma glucose) (2DG hyperglycemic rats; 100,000 ng intraperitoneal): 21.9% | hypoglycemic action (2DG hyperglycemic rats; high dose of 1,000,000 ng (3.3 mg/kg body weight) intraperitoneal): did not show any hypoglycemic action | suppression rate of efferent neural activity of the sympathetic nerve adrenal branches ([4]; 30 minutes after administration): 31.3% | suppression rate of efferent neural activity of the sympathetic nerve adrenal branches ([4]; 60 minutes after administration): 46.9% | suppression rate of efferent neural activity of the sympathetic nerve adrenal branches ([4]; 90 minutes after administration): 58.1%
